Measurements taken from patent publication US9993444B2, “Use of beta-adrenergic inverse agonists for smoking cessation” (INVION, INC., priority 2011, dated 2018).
“Also recorded” adds a separate entry of the source.

Key:
β-adrenergic receptor = details: cited from earlier work
[1] = acute administration; U.S. Pat. No. 6,284,800; cited from earlier work
[2] = tested on: tracheas from asthmatic mice; details: chronically treated asthmatic mice, excised tracheas; WO 02/29534; cited from earlier work
asthmatic mice [3] = assay: Lung histology (periodic acid-Schiff stain, goblet cells/mucus) after chronic inverse agonist treatment of ovalbumin-sensitized and -challenged mice; type: in vivo, Balb/cJ mice
Description: (§1) Mice were made asthmatic by sensitization to the antigen ovalbumin. Balb/cJ mice aged 6 weeks (Jackson Animal Laboratory, Bar Harbor, Me.) were housed under specific pathogen-free conditions and fed a chicken ovalbumin-free diet. Mice were sensitized with subcutaneous injection of 25 μg of ovalbumin adsorbed to aluminum hydroxide on protocol days 2, 9, and 16. Subsequently, mice were given […] of saline solution containing 25 μg of ovalbumin intranasally, on a daily basis, from protocol days 23 through 27. A group of ovalbumin-sensitized saline-challenged mice serves as controls for systemic sensitization and respiratory challenges with ovalbumin. Prior to intranasal administrations, mice were sedated with halothane vapor. For the study of this Example, ovalbumin-sensitized and ovalbumin-challenged mice, and ovalbumin-sensitized and saline-challenged mice will be referred to as asthmatic mice and control mice, respectively.
(§2) Animals received drug treatment for 7 days from day 21 to 27 of the sensitization/challenging protocol; ICI-118,551 at 10 mg/kg, was administered 3 times a day subcutaneously by osmotic minipump (Alzet®, #2004, Durect Corporation, Cupertino, Calif.). ICI-118,551 was dissolved in 50% DMSO. […]

asthmatic mice [4] = assay: Lung histology (hematoxylin-eosin) after chronic inverse agonist treatment of ovalbumin-sensitized and -challenged mice; type: in vivo, Balb/cJ mice; details: ICI-118,551 10 mg/kg subcutaneously by osmotic minipump, 7 days (day 21 to 27)
Description: as §1, §2

[5] = tested on: sensitized and challenged mice; assay: Airway hyperresponsiveness to methacholine in a mouse model of obstructive lung disease, chronic administration; type: in vivo; details: for airway hyperresponsiveness: compared to untreated sensitized and challenged mice
From the text: Even though alprenolol is a β-adrenergic antagonist, it has partial agonist activity. Carvedilol is a β1/β2 non-selective adrenergic antagonist with α1-adrenergic antagonist activity.

patients with CHF = details: cited from earlier work

CC(C)NC[C@@H](O)COc1cccc2ccccc12 [D-propranolol]
potency in inhibiting the β-adrenergic receptor relative to the L-form (β-adrenergic receptor; U.S. Pat. No. 5,116,867): 1/100 | activity with respect to β-adrenergic receptors (β-adrenergic receptor; U.S. Pat. No. 6,284,800): inactive | antigen-induced bronchoconstriction and airway hyperresponsiveness [1]: beneficial in inhibiting antigen-induced bronchoconstriction and reducing airway hyperresponsiveness

Cc1ccc(OCC(O)C(C)NC(C)C)c2c1CCC2 (stereo not shown) [ICI 118,551]
rank of effectiveness on tracheal contraction in response to methacholine [2]: then ICI-118,551 | appearance of lung epithelial cells, PAS stain (FIG. 6) (asthmatic mice [3]; ICI-118,551 10 mg/kg subcutaneously by osmotic minipump, 7 days (day 21 to 27)): appear substantially normal | transformation of lung epithelium from ciliated cells to mucus-producing goblet cells (FIGS. 1-6) (asthmatic mice [3]; chronic treatment): restores the airway epithelium to a normal healthy state; also recorded: substantially reversed the transformation of lung epithelium | appearance of lung epithelial cells, hematoxylin-eosin staining (FIG. 3) (asthmatic mice [4]): substantially returned to their normal appearance

CC(C)NC[C@H](O)COc1cccc2ccccc12 [L-form of propranolol, propranolol]
specific lung resistance [1]: increased specific lung resistance

C=CCc1ccccc1OCC(O)CNC(C)C (stereo not shown) [alprenolol]
rank of effectiveness on tracheal contraction in response to methacholine [2]: most effective compound | airway hyperresponsiveness [5]: does not reduce airway hyperresponsiveness; also recorded: without any activity

CC(C)(Cc1c[nH]c2ccccc12)NCC(O)COc1ccccc1C#N (stereo not shown) [bucindolol]
clinical outcome in congestive heart failure (mortality / benefit over placebo) (patients with CHF): failed to demonstrate any benefit over placebo

COc1ccccc1OCCNCC(O)COc1cccc2[nH]c3ccccc3c12 (stereo not shown) [carvedilol]
rank of effectiveness on tracheal contraction in response to methacholine [2]: followed by carvedilol | clinical outcome in congestive heart failure (mortality / benefit over placebo) (patients with CHF): significant mortality reduction | sensitivity of the responsiveness to methacholine [5]: shifts the sensitivity of the responsiveness to methacholine to lower concentrations | airway hyperresponsiveness [5]: does reduce airway hyperresponsiveness

COCCc1ccc(OCC(O)CNC(C)C)cc1 (stereo not shown) [metoprolol]
clinical outcome in congestive heart failure (mortality / benefit over placebo) (patients with CHF): significant mortality reduction
